Assay results taken from US9316913B2, “Underlayer film-forming material for lithography, underlayer film for lithography, and pattern formation method” (MITSUBISHI GAS CHEMICAL COMPANY, INC., priority 2011, dated 2016).

Legend:
Pyrolysis temperature = type: physicochemical; settings: thermogravimetric measurement (TG); nitrogen stream, 10° C./min
Protocol: An EXSTAR 6000 DSC apparatus manufactured by SII NanoTechnology Inc. was used, and about 5 mg of a sample was placed in an unsealed aluminum container and heated to 500° C. at a rate of temperature rise of 10° C./min in a nitrogen gas (30 ml/min) stream. In this time, a temperature at which a reducing portion appeared on the base line was defined as a pyrolysis temperature (Tg).

[1] = Solubility in PGME and PGMEA; type: physicochemical; settings: 23° C.
Protocol: Herein, the solubility in PGME or PGMEA is defined as “Mass of resin/(Mass of resin+Mass of solvent)×100 (% by mass)”.
The amount of each compound dissolved in 1-methoxy-2-propanol (PGME) and propylene glycol monomethyl ether acetate (PGMEA) was measured at 23° C., and the results were evaluated according to the following criteria.
Evaluation A: 10% by weight or more
Evaluation B: 3% by weight or more and less than 10% by weight
Evaluation C: less than 3% by weight

| pyrolysis temperature (Pyrolysis temperature) [°C] | solubility in PGME and PGMEA ([1]; 1-methoxy-2-propanol (PGME) and propylene glycol monomethyl ether acetate (PGMEA)) [% by weight] | Structure (SMILES) | solubility in PGME and PGMEA (Evaluation) [1] |
| --- | --- | --- | --- |
| 410 | ≥ 20 | Oc1ccc2c3c(ccc2c1)Oc1ccc2cc(O)ccc2c1C3c1ccc(-c2ccccc2)cc1 [BisN-1] | A (10% by weight or more) |
| 410 |  | Oc1ccc2ccc3c(c2c1)C(c1ccc(-c2ccccc2)cc1)c1c(ccc2ccc(O)cc12)O3 [BisN-2] | B (3% by weight or more and less than 10% by weight) |
| 410 |  | Oc1cccc2c3c(ccc12)C(c1ccc(-c2ccccc2)cc1)c1ccc2c(O)cccc2c1O3 [BisN-3] | B (3% by weight or more and less than 10% by weight) |
| 410 |  | Oc1cccc2c3c(ccc12)Oc1ccc2c(O)cccc2c1C3c1ccc(-c2ccccc2)cc1 [BisN-4] | B (3% by weight or more and less than 10% by weight) |
| 410 |  | Oc1ccc2ccc3c(c2c1)Oc1c(ccc2ccc(O)cc12)C3c1ccc(-c2ccccc2)cc1 [BisN-5] | B (3% by weight or more and less than 10% by weight) |
| 410 |  | Oc1cc2ccccc2c2c1Oc1c(O)cc3ccccc3c1C2c1ccc(-c2ccccc2)cc1 [BisN-6] | B (3% by weight or more and less than 10% by weight) |
| 415 |  | Oc1ccc2c3c(ccc2c1)Oc1ccc2cc(O)ccc2c1C3c1cccc2ccccc12 [BisN-7] | B (3% by weight or more and less than 10% by weight) |
| 400 |  | Oc1ccc2c3c(ccc2c1)Oc1ccc2cc(O)ccc2c1C31CCCCC1 [BisN-10] | B (3% by weight or more and less than 10% by weight) |
| 450 |  | Oc1ccc2c3c(ccc2c1)Oc1ccc2cc(O)ccc2c1C31c2ccccc2-c2ccccc21 [BisN-11] | B (3% by weight or more and less than 10% by weight) |
| 410 |  | Oc1ccc2c3c(ccc2c1)Oc1ccc2cc(O)ccc2c1C3c1ccc(C2c3c(ccc4cc(O)ccc34)Oc3ccc4cc(O)ccc4c32)cc1 [BisN-12] | B (3% by weight or more and less than 10% by weight) |
| 410 |  | Oc1ccc2c3c(ccc2c1)Oc1ccc2cc(O)ccc2c1C3c1ccc(-c2ccc(C3c4c(ccc5cc(O)ccc45)Oc4ccc5cc(O)ccc5c43)cc2)cc1 [BisN-13] | B (3% by weight or more and less than 10% by weight) |
| 410 |  | Oc1ccc2c3c(ccc2c1)Oc1ccc2cc(O)ccc2c1C3c1cc(C2c3c(ccc4cc(O)ccc34)Oc3ccc4cc(O)ccc4c32)cc(C2c3c(ccc4cc(O)ccc34)Oc3ccc4cc(O)ccc4c32)c1 [BisN-14] | B (3% by weight or more and less than 10% by weight) |

| Structure (SMILES) | pyrolysis temperature (Pyrolysis temperature) [°C] | solubility in PGME and PGMEA ([1]; 1-methoxy-2-propanol (PGME) and propylene glycol monomethyl ether acetate (PGMEA)) [% by weight] | solubility in PGME and PGMEA (Evaluation) [1] |
| --- | --- | --- | --- |
| Oc1ccc2c3c(ccc2c1)Oc1ccc2cc(O)ccc2c1C3c1cc2ccccc2c2ccccc12 [BisN-8] | 415 |  | B (3% by weight or more and less than 10% by weight) |
| Oc1ccc2c3c(ccc2c1)Oc1ccc2cc(O)ccc2c1C3c1ccc2ccc3cccc4ccc1c2c34 [BisN-9] | 420 |  | B (3% by weight or more and less than 10% by weight) |
